Consider one molecule from patent US6025365A, “Chelerythrine and radiation combined tumor therapy” (Arch Development Corp., priority 1997, dated 2000).

Broadly, the IC50 is the concentration needed to halve the response being measured.

In series [1] the test system is neutral sphingomyelinase. Description: Mixed micellar assay, neutral sphingomyelinase activity in treated SQ-20B cells. It counts as cell-based, human. The following applies: 5 μM chelerythrine 30 minutes then 10 Gy; within 5 minutes of IR. The procedure: (§1) FIG. 5A. […] The mixed micellar assay for sphingomyelinase activity was used to quantitate increased enzymatic activity.
(§2) The mixed micellar sphingomyelinase assay using ^[14] C labeled sphingomyelin was performed as described (Wiegmann et al., 1994) with minor modifications as described herein. Exponentially growing cells 2×10^7 were treated, collected, and lysed in 200 μl of neutral buffer (20 mM Hepes, pH 7.4; 10 mM MgCl2, 2 mM EDTA, 5 mM DTT, […], 10 mM b-glycerolphosphate, 750 μM ATP, 1 mM PMSF, Leupeptin, Pepstatin, 2% Triton X-100) or an acid buffer (pH=5.5, 2% Triton X-100, 1 mM PMSF, Leupeptin, Pepstatin). After incubation for 5 minutes at 4° C., cells were homogenized by sonication and cell debris were removed by low speed centrifugation (800×g). The protein concentration was measured using the BioRad protein assay system (BioRad). Protein (50 μg) was incubated for 2 hours at 37° C. in a buffer (1 ml final volume) containing 20 mM HEPES, 1 mM MgCl2, and 0.9 μl [N-methyl-^14 C sphingomyelin].

The next series has as its system acidic sphingomyelinase. Description: Mixed micellar assay, acidic sphingomyelinase activity in treated SQ-20B cells. It counts as cell-based, human. The conditions noted are these: 5 μM chelerythrine 30 minutes then 10 Gy; within 5 minutes of IR. The procedure: as §1, §2
A further series has as its system SQ-20B xenografts. Description: Growth of SQ-20B tumor xenografts in nude mice. It counts as in vivo, nude mice (human tumor xenograft). The procedure:
FIG. 6. The SQ-20B xenograft system was used to assess the therapeutic efficacy of the combined treatment modality over 30 days. Forty animals (n=40) were treated in each group and the % mean tumor growth was determined for all animals. Calipers were used to measure tumor growth.
SQ-20B (1-5×10^6) tumor cells were injected into the right hind limbs of nude mice (Fredrick Cancer Research Institute). Xenografts were grown for 2-3 weeks to a mean tumor volume of […]. At day 0, initial tumor volume was determined by direct measurement with calipers. During treatment tumor volumes were measured with calipers twice weekly and represented as percent of original tumor volume. Tumor volumes were calculated by the formula (a×b×c/2) which was derived from that for an ellipsoid (d3/6). Tumor cure was defined as regression to a volume of <10% of original size since, at this volume, it is impossible to differentiate residual tumor from scar tissue. Xenografts were injected with 2 mg/kg chelerythrine chloride on days 0, 3, 7 and 10. Irradiated mice were immobilized in lucite chambers and the entire body was shielded with lead except for the tumor bearing hind limb 14. Tumors were irradiated (5 Gy/day, 4 days/week) to a total dose of 50 Gy using a Maxitron generator (1.88 Gy/min.). Tumors were treated with radiation alone, chelerythrine alone, and buffer or chelerythrine combined with radiation. Data were calculated as the percent of original (day 0) tumor volume and graphed as fractional tumor volume±SEM.
Radiation was delivered at 5 Gy/day, 4 days per week, for a total of 50 Gy.
(A xenograft is tissue or cells of one species grown in another, often human tumour cells in immunodeficient mice.)

The next series deals with WEHI-231 cells. The series can be described thus: Apoptosis / cell death of WEHI-231 (propidium iodide FACS, gel electrophoresis, DAPI). The conditions noted are these: 24 hours; chelerythrine 10 μM or calphostin C 250 nM. It counts as cell-based, murine. The procedure:
Cells undergoing apoptosis also shrink in size.
Cells, 5×10^5, were centrifuged at 1000 rpm and resuspended in approximately 100 μl cell culture media. The cell suspension was then mixed with 100 μl of DAPI (4',6-iamidino-2-phenylindole, Sigma D9542, 1 μg/ml in PBT (PBS+1% Triton X-100)). One drop of this mixture was placed on a microslide with a coverslip. The cells were viewed by fluorescence microscopy using an Olympus BX-40 microscope with a 100 Watt Mercury lamp, a 16 or 40 X Fluorite objective, N.A. 0.75, (Leco #1-UB527) and a UV filter cube (ex 330-385 nm, em 420 nm, wide band pass, Leco #U-M536). Images were photographed using an Optronics cooled low-light video camera (Leco #DEI-470TB) to which was attached a 2X coupler (Leco #HR200-CMT). The image was saved to a digital file at 72 dpi.
DNA degradation was assessed as previously described (Gottschalk et al., 1993; 1994). Briefly, following treatment in 100 mm plates or 24 well plates, cells were collected and lysed in 0.5 ml lysis buffer (0.6% SDS+10 mM EDTA, pH 7.0). NaCl was added to a final concentration of 1M, mixed by inversion, incubated for 12 hours at 4° C. and then spun at 14,000 g for 30 minutes. Samples were treated with chloroform (1:1) and precipitated in ethanol prior to electrophoresis in a 3% agarose gel and visualized with ethidium bromide.

The test system of series [2] is neutral sphingomyelinase. Description: Mixed micellar assay, neutral sphingomyelinase activity in treated WEHI-231 cells. It counts as cell-based, murine. The following applies: chelerythrine, within 30 minutes; SD. The procedure:
FIG. 7C. Graph of neutral and acidic sphingomyelinase activity normalized to percent of control. Cells (2×10^7) were treated with chelerythrine for 30 minutes prior to being assayed for neutral or acidic sphingomyelinase activity. Error bars represent +/- SEM from 4 individual studies with duplicate determinants.
as §2, with “sphingomyelin]. […] Radioactive phosphorylcholine was measured by scintillation counting. Data is expressed as a percent of control for both the acidic and neutral sphingomyelinases. […]” for “sphingomyelin].”

For a further series, the system named is L-1210 tumor cells. The conditions noted are these: l1210 cells; cited from earlier work.

SMILES strings stand for the structures.

For the molecule `COc1ccc2c(c[n+](C)c3c4cc5c(cc4ccc23)OCO5)c1OC` [chelerythrine, 1,2-dimethoxy-12-methyl[1,3]benzodioxolo[5,6-c]phenanthridinium], the “neutral sphingomyelinase activity, x-rays and chelerythrine” value in the series on neutral sphingomyelinase [1] is given as “about 200 % of control”. Moreover, the “acidic sphingomyelinase activity, x-rays and chelerythrine” value in the series with acidic sphingomyelinase was “about 170 % of control”. The “animals with regression to less than 10% of original tumor volume, combined treatment” value in the series on SQ-20B xenografts (2 mg/kg chelerythrine x4 plus 50 Gy, day 31) was 20/41. In the series on SQ-20B xenografts (2 mg/kg x4, day 31), the “animals with regression to less than 10% of initial tumor volume, chelerythrine only” value is recorded as 13/43. The “tumor regrowth, volume at day 30” value with SQ-20B xenografts (chelerythrine alone, 2 mg/kg days 0, 3, 7, 10) was 174 % of the original volume. Further, in the series with WEHI-231 cells, the cell death result is recorded as “greater than 90%”. Further, the neutral sphingomyelinase activity with neutral sphingomyelinase [2] was 235% (+/-38 SD). Also, the IC50 in the series on L-1210 tumor cells is 53 nM.
